How the values were obtained:
[1] = test system: Croton Oil Inflamed Mouse Ear; assay: Croton Oil Inflamed Mouse Ear Test (Topical treatment); assay type: in vivo, Adult male Cox ICR mice; conditions: 1% solution in ethanol, two doses, 4 h after croton oil, All values significant p 0.05
Procedure: Substituted phenylacetic acid amide compounds were tested for anti-inflammatory activity using the Croton Oil Inflamed Mouse Ear Test (Topical treatment).
Adult male Cox ICR mice, 25-35 g, were treated at about 3:00 PM on the left ear with 25 l of a 1% solution of the test compound in ethanol. They were placed in individual stainless steel cages where food and water was available ad libitum. The following morning around 8:00 AM the mice were dosed a second time on the same ear. One hour after the second dose, 25 l of 2% croton oil in acetone was applied to the left ear of the control and test groups.
Four hours after the croton oil treatment, the mice were sacrificed by cervical dislocation and both ears removed. A 5 mm punch biopsy was taken from each ear and weighed to the nearest 0.1 mg on a Cahn electrobalance.
The results were expressed as percent inhibition of the swelling response compared to the control group according to the formula:
(C-Ta..n)/C×100=Percent Inhibition
where C is the average difference between the left and right ear weights of the control group, and
Ta..n is the difference between left and right ear weights of animal (a..n) in a treated group.
Statistical tests for significance between groups were made using a one way analysis of variance of the ear weight differences.

[2] = Oral administration of soft gelatin capsules to a human (Example IV); assay type: in vivo; conditions: two capsules each containing 225 mg of the composition, 60 kg human
Procedure: (§1) A composition for oral administration is prepared by combining the following ingredients:
N-oleyl-4-hydroxy-3-methoxyphenylacetamide, 1.10 kg

[3] = Oral administration of syrup to an adult human (Example V); assay type: in vivo; conditions: one teaspoon of syrup, 70 kg adult human
Procedure: as §1
N-oleyl-4-hydroxy-3-methoxyphenylacetamide, 250 g
Propylene glycol, 1800 ml
Artificial Cherry flavor, 10 ml
The above ingredients are combined to produce a syrup and are packaged under sterile conditions in 6 oz. bottles.

[4] = test system: Carrageenan Rat Paw Edema; assay: Carrageenan Rat Paw Edema Test (Oil Vehicle); assay type: in vivo, Male Sprague Dawley rats; conditions: 4 h after carrageenan, All values significant p 0.05
Procedure: Substituted phenylacetic acid amide compounds were tested for anti-inflammatory activity using the Carrageenan Rat Paw Edema Test (Oil Vehicle).
Male Sprague Dawley rats (Charles River Laboratories) were weighed and food fasted overnight. The animals were divided into four to six groups of six animals each according to body weights, average about 145 g, so that each group had about the same average weight (within 10 g).
The following morning five ml of water was dosed orally via stomach tube to each animal to facilitate paw swelling. The animals were dosed with the test compound and then placed in individual cages. The drug was dissolved in ethyl oleate: benzyl alcohol, 98:2, and delivered via stomach tube in 1 ml volume.
Paw volumes (0 time) were determined on both hind paws with a mercury displacement device equipped with a transducer and digitizer. […] Four hours after the carrageenan injection, the paw volumes are again determined.
The results are expressed as percent inhibition of the mean paw volume of the test group relative to the control group according to the formula: […]
Ta..n is the difference in paw swelling in the treated animals (a..n). Statistical differences are determined by one way analysis of variance.

[5] = Topical application to forearm of a human (Example VI); assay type: in vivo; conditions: 0.4 ml to 80 cm^2 of forearm, 60 kg human
Procedure: A composition for topical administration is prepared by combining the following ingredients:
N-oleyl-4-hydroxy-3-methoxyphenylacetamide, 4 g
The phenylacetamide is melted with slight warming and combined with the other ingredients.

Compound | Percent Inhibition (of the swelling response compared to control) [1] | also measured
C=CCCCCCCCCNC(=O)Cc1ccc(O)c(OC)c1 [N-9-decenyl-4-hydroxy-3-methoxyphenylacetamide] | 98.9 +/- 11.9% | 
CCCCCCCC(C)NC(=O)Cc1ccc(O)c(OC)c1 (stereo not drawn) [N-(2-nonanyl)-4-hydroxy-3-methoxyphenylacetamide] | 55.6 +/- 26.5% | 
CCCCCCC(C)NC(=O)Cc1ccc(O)c(OC)c1 (stereo not drawn) [N-(2-octanyl-)-4-hydroxy-3-methoxyphenylacetamide] | 48.1 +/- 15.8% | 
C=C(CCCCCCCCC)CCCCCCCCNC(=O)Cc1ccc(O)c(OC)c1 [N-(9-methylene-1-octadecanyl-)-4-hydroxy-3-methoxyphenyl acetamide] |  | Analgesia [2]: increased analgesic effect; Reduction of inflammation [2]: substantially similar reduction of inflammation
COc1cc(CC(=O)NC2CCCCCCC2)ccc1O [N-cyclooctyl-4-hydroxy-3-methoxyphenylacetamide] |  | Analgesia [3]: weaker analgesic effect; Reduction of inflammation [3]: substantially similar reduction of inflammation
CCCCCCCCCCNC(=O)Cc1ccc(O)c(OC)c1 [N-decyl-4-hydroxy-3-methoxyphenylacetamide] | 58.1 +/- 29.4% | 
CCCCCCCCCCCCNC(=O)Cc1ccc(O)c(OC)c1 [N-dodecyl-4-hydroxy-3-methoxyphenylacetamide] | 55.3 +/- 20.7% | 
CCCCCCCNC(=O)Cc1ccc(O)c(OC)c1 [N-heptyl-4-hydroxy-3-methoxyphenylacetamide] | 69.4 +/- 33.9% | 
CCCCCCCCCNC(=O)Cc1ccc(O)c(OC)c1 [N-nonyl-4-hydroxy-3-methoxyphenylacetamide] | 80.7 +/- 23.0% | 
CCCCCCCCNC(=O)C(C)c1ccc(O)c(OC)c1 (stereo not drawn) [N-octyl-4-hydroxy-3-methoxyphenyl-2-methyl-acetamide] | 88.9 +/- 24.1% | 
CCCCCCCCNC(=O)Cc1ccc(O)c(OC)c1 [N-octyl-4-hydroxy-3-methoxyphenylacetamide] | 89.1 +/- 15.7% | 
CCCCCCCC/C=C\CCCCCCCCNC(=O)Cc1ccc(O)c(OC)c1 [N-oleyl-4-hydroxy-3-methoxyphenylacetamide] | 83.5 +/- 11.9% | Percent Inhibition (of mean paw volume relative to control) ([4]; 200 mg/kg oral in ethyl oleate: benzyl alcohol 98:2): 89.3 +/- 10.8%; Percent Inhibition (of mean paw volume relative to control) ([4]; 400 mg/kg oral in ethyl oleate: benzyl alcohol 98:2): 95.6 +/- 11.2%
CCCCCCCCCCCCCCCCCCNC(=O)Cc1ccc(O)c(OC)c1 [N-stearyl-4-hydroxy-3-methoxyphenylacetamide] |  | Analgesia [5]: weaker analgesic effect; Reduction of inflammation [5]: substantially similar reduction of inflammation

Source: patent publication US5013759A, “Compounds and compositions having anti-inflammatory and analgesic activity” (The Procter & Gamble Company, priority 1990, dated 1991)
